How the values were obtained:
[1] = xn = mol fraction of the nth substance listed; settings: 318.15 K, 101.3 kPa, Liquid
[2] = excess molar enthalpy (molar enthalpy of mixing); xn = mol fraction of the nth substance listed; settings: 318.15 K, 101.3 kPa, Liquid

CCCOC(C)=O [propyl ethanoate] + CCCCCCC
Settings	excess molar enthalpy [kcal/mol]	excess molar volume [m3/mol]
[1], x1 = 0.0727	–	3.32e-07
[1], x1 = 0.1288	–	4.98e-07
[1], x1 = 0.1829	–	6.45e-07
[1], x1 = 0.2463	–	7.68e-07
[1], x1 = 0.2995	–	8.38e-07
[1], x1 = 0.3536	–	8.87e-07
[1], x1 = 0.404	–	9.09e-07
[1], x1 = 0.463	–	9.23e-07
[1], x1 = 0.5069	–	9.1e-07
[1], x1 = 0.5618	–	8.85e-07
[1], x1 = 0.6574	–	7.96e-07
[1], x1 = 0.6914	–	7.52e-07
[1], x1 = 0.7928	–	5.61e-07
[1], x1 = 0.8765	–	3.62e-07
[1], x1 = 0.9436	–	1.75e-07
[2], x1 = 0.0692	0.0826	–
[2], x1 = 0.1449	0.151	–
[2], x1 = 0.2229	0.211	–
[2], x1 = 0.2968	0.251	–
[2], x1 = 0.3635	0.278	–
[2], x1 = 0.4256	0.292	–
[2], x1 = 0.484	0.295	–
[2], x1 = 0.535	0.291	–
[2], x1 = 0.5539	0.284	–
[2], x1 = 0.6002	0.27	–
[2], x1 = 0.6528	0.251	–
[2], x1 = 0.6987	0.228	–
[2], x1 = 0.7526	0.198	–
[2], x1 = 0.8089	0.158	–
[2], x1 = 0.8635	0.118	–
[2], x1 = 0.9048	0.0847	–
[2], x1 = 0.9537	0.0443	–

CCCCCCCCCCCCCCCCC [heptadecane] + CCCOC(C)=O
Settings	excess molar enthalpy [kcal/mol]	excess molar volume [m3/mol]
[1], x2 = 0.2332	–	8.02e-07
[1], x2 = 0.3167	–	1.017e-06
[1], x2 = 0.4087	–	1.166e-06
[1], x2 = 0.4759	–	1.235e-06
[1], x2 = 0.5393	–	1.28e-06
[1], x2 = 0.5977	–	1.276e-06
[1], x2 = 0.6463	–	1.246e-06
[1], x2 = 0.6916	–	1.225e-06
[1], x2 = 0.7628	–	1.103e-06
[1], x2 = 0.8202	–	9.42e-07
[1], x2 = 0.891	–	6.77e-07
[1], x2 = 0.9375	–	4.38e-07
[1], x2 = 0.9705	–	2.25e-07
[2], x2 = 0.0838	0.115	–
[2], x2 = 0.1596	0.208	–
[2], x2 = 0.2462	0.301	–
[2], x2 = 0.3255	0.371	–
[2], x2 = 0.3884	0.406	–
[2], x2 = 0.4477	0.435	–
[2], x2 = 0.4925	0.447	–
[2], x2 = 0.5313	0.451	–
[2], x2 = 0.5702	0.451	–
[2], x2 = 0.6288	0.438	–
[2], x2 = 0.6644	0.424	–
[2], x2 = 0.7023	0.403	–
[2], x2 = 0.7423	0.38	–
[2], x2 = 0.7826	0.346	–
[2], x2 = 0.8239	0.308	–
[2], x2 = 0.8654	0.262	–
[2], x2 = 0.9064	0.203	–
[2], x2 = 0.9452	0.138	–
[2], x2 = 0.9772	0.0665	–

CCCCCOC(C)=O [pentyl ethanoate] + CCCCCCC
Settings	excess molar enthalpy [kcal/mol]	excess molar volume [m3/mol]
[1], x1 = 0.0546	–	1.29e-07
[1], x1 = 0.1048	–	2.14e-07
[1], x1 = 0.1515	–	2.65e-07
[1], x1 = 0.2014	–	3.07e-07
[1], x1 = 0.2488	–	3.45e-07
[1], x1 = 0.3009	–	3.81e-07
[1], x1 = 0.3474	–	3.99e-07
[1], x1 = 0.3999	–	4.11e-07
[1], x1 = 0.4426	–	4.09e-07
[1], x1 = 0.4977	–	3.97e-07
[1], x1 = 0.5503	–	3.72e-07
[1], x1 = 0.5881	–	3.55e-07
[1], x1 = 0.636	–	3.23e-07
[1], x1 = 0.7502	–	2.51e-07
[1], x1 = 0.8467	–	1.71e-07
[1], x1 = 0.9288	–	9.4e-08
[2], x1 = 0.0544	0.0566	–
[2], x1 = 0.1187	0.104	–
[2], x1 = 0.1801	0.141	–
[2], x1 = 0.2428	0.169	–
[2], x1 = 0.3049	0.192	–
[2], x1 = 0.3645	0.205	–
[2], x1 = 0.4174	0.211	–
[2], x1 = 0.468	0.212	–
[2], x1 = 0.472	0.212	–
[2], x1 = 0.5161	0.209	–
[2], x1 = 0.5646	0.203	–
[2], x1 = 0.6163	0.191	–
[2], x1 = 0.6696	0.176	–
[2], x1 = 0.7277	0.155	–
[2], x1 = 0.7889	0.128	–
[2], x1 = 0.8473	0.0966	–
[2], x1 = 0.9078	0.0615	–
[2], x1 = 0.9594	0.0278	–

Source: the NIST ThermoML archive (doi:10.1016/j.jct.2003.11.008)
